Where two headings read alike, the source gives them in different places.
Legend:
HIV-1 (strain IIIB) = assay: microbe, parasite or virus in culture; format: cell-based; conditions: lower line of each compound's entry, read-out: IC50 (MT-4 cells)
HIV-1 protease = HIV-1 protease (Human immunodeficiency virus type 1 group M subtype B, UniProt P04585); assay: biochemical
[1] = Human immunodeficiency virus 1, 120 h, MT4 cells infected with HIV-1 strain IIIB, 5 days
[2] = HIV-1 protease, upper line of each compound's entry, read-out: Ki (enzyme)
[3] = Human immunodeficiency virus 1, IIIB, MT4, 120 h, […]

Row | Structure (SMILES) | IC50 (HIV-1 (strain IIIB); [1]) [nM] | Ki (HIV-1 protease; [2]) [nM] | IC50 (HIV-1 (strain IIIB); [3]) [nM] | Ki (HIV-1 protease) [nM]
1 | CCC(CC)ON(C[C@@H](O)[C@H](Cc1ccccc1)NC(=O)OC(C)(C)C)S(=O)(=O)c1ccc(OC)cc1 [Example 161, tert-butyl(1S,2R)-1-benzyl-3-{(1-ethylpropoxy)[(4-methoxyphenyl)sulfonyl]amino}-2-hydroxypropylcarbamate] | > 1000 | 1 to 10 |  | 
2 | CC(C)Oc1ccc(S(=O)(=O)N(C[C@@H](O)[C@H](Cc2ccccc2)NC(=O)OC2CO[C@H]3OCC[C@@H]23)OC2CCCC2)cc1 (stereo partly drawn) [Compound 141, (3R,3aS,6aR)hexahydrofuro[2,3-b]furan-3-yl N-((1S,2R)-1-benzyl-3-(cyclopentyloxy)[(4-isopropoxyphenyl)sulfonyl]amino-2-hydroxypropyl)carbamate] |  | < 1 | > 1000 | 
3 | CC(C)(C)OC(=O)CNc1cccc(S(=O)(=O)N(CC(O)C(Cc2ccccc2)NC(=O)OC2COC3OCCC23)OC2CCCC2)c1 (mixture of isomers) [Compound 30, tert-butyl 2-(3-[[(2R,3S)-3-([(3R,3aS,6aR)hexahydrofuro[2,3-b]furan-3-yloxy]carbonylamino)-2-hydroxy-4-phenylbutyl](cyclopentyloxy)amino]sulfonylanilino)acetate and tert-butyl 2-(3-[[(2R,3S)-3-([(3S,3aR,6aS)hexahydrofuro[2,3-b]furan-3-yloxy]carbonylamino)-2-hydroxy-4-phenylbutyl](cyclopentyloxy)amino]sulfonylanilino)acetate] | 100 to 500 | < 1 |  | 
4 | COc1ccc(S(=O)(=O)N(C[C@@H](O)[C@H](Cc2ccccc2)NC(=O)OCc2ccccc2)OC2CCCC2)cc1 [Compound 24, Phenylmethyl N-((1S,2R)-1-benzyl-3-(cyclopentyloxy)[(4-methoxyphenyl)sulfonyl]amino-2-hydroxypropyl)carbamate] | > 1000 | < 1 |  | 
5 | CC(C)(C)ON(C[C@@H](O)[C@H](Cc1ccccc1)NC(=O)O[C@H]1CCOC1)S(=O)(=O)c1ccccc1 [Compound 111, (3S) Tetrahydro-3-furanyl-N-(1S,2R)-1-benzyl-3-(tertbutyloxy)[(phenyl)sulfonyl]amino-2-hydroxypropylcarbamate] | > 1000 | 1 to 10 |  | 
6 | CNC(=O)CNC(=O)NCCNc1cccc(S(=O)(=O)N(CC(O)C(Cc2ccccc2)NC(=O)OC2COC3OCCC23)OC2CCCC2)c1 [Example 167, (3R,3aS,6aR)hexahydrofuro[2,3-b]furan-3-yl N-[(1S,2R)-1-benzyl-3-((cyclopentyloxy)[3-([(2-[methylamino]-2-oxoethylamino)carbonylamino]ethylamino)phenyl]sulfonylamino)-2-hydroxypropyl]carbamate and (3S,3aR,6aS)hexahydrofuro[2,3-b]furan-3-yl N-[(1S,2R)-1-benzyl-3-((cyclopentyloxy)[3-([2-[methylamino)-2-oxoethylamino)carbonylamino]ethylamino)phenyl]sulfonylamino)-2-hydroxypropyl]carbamate] | 100 to 500 | < 1 |  | 
7 | CC(C)(C)OC(=O)N[C@@H](Cc1ccccc1)[C@H](O)CN(OC1CCCC1)S(=O)(=O)c1ccc2[nH]c(NC(=O)CCCl)nc2c1 [Compound 105, Tert-butyl N-(1S,2R)-1-benzyl-3-[(cyclopentyloxy)(2-[(3-chloropropionyl)amino]-1H-benzimidazol-5-ylsulfonyl)amino]-2-hydroxypropylcarbamate] | ≤ 100 | < 1 |  | 
8 | CC(C)COC(=O)N(CC(=O)NCCO)c1cccc(S(=O)(=O)N(CC(O)C(Cc2ccccc2)NC(=O)OC2COC3OCCC23)OC2CCCC2)c1 [Compound 37, (3R,3aS,6aR)hexahydrofuro[2,3-b]furan-3-yl N-(1S,2R)-1-benzyl-3-[(cyclopentyloxy)(3-[2-[(2-hydroxyethyl)amino]-2-oxoethyl(isobutoxycarbonyl)amino)phenylsulfonyl)amino]-2-hydroxypropylcarbamate and (3S,3aR,6aS)hexahydrofuro[2,3-b]furan-3-yl N-(1S,2R)-1-benzyl-3-[(cyclopentyloxy)(3-[2-[(2-hydroxyethyl)amino]-2-oxoethyl(isobutoxycarbonyl)amino]phenylsulfonyl)amino]-2-hydroxypropylcarbamate] | ≤ 100 | < 1 |  | 
9 | N#CCNc1cccc(S(=O)(=O)N(CC(O)C(Cc2ccccc2)NC(=O)OC2COC3OCCC23)OC2CCCC2)c1 [Compound 86, (3R,3aS,6aR)hexahydrofuro[2,3-b]furan-3-yl N-(1S,2R)-1-benzyl-3-[(3-[(cyanomethyl)amino]phenylsulfonyl)(cyclopentyloxy)amino]-2-hydroxypropylcarbamate and (3S,3aR,6aS)hexahydrofuro[2,3-b]furan-3-yl N-(1S,2R)-1-benzyl-3-[(3-[(cyanomethyl)amino]phenylsulfonyl)(cyclopentyloxy)amino]-2-hydroxypropylcarbamate] | ≤ 100 | < 1 |  | 
10 | COc1ccc(S(=O)(=O)N(C[C@@H](O)[C@H](Cc2ccccc2)NC(=O)C(C)CS(C)(=O)=O)OC2CCCC2)cc1 (stereo partly drawn) [Compound 115, 1N-(3-Methylsulfonylisobutyryl)-(1S,2R)-1-benzyl-3-(cyclopentyloxy)[4-methoxyphenylsulfonyl]amino-2-hydroxypropylamine] | 500 to 1000 | > 100 |  | 
11 | CC(C)ON(C[C@@H](O)[C@H](Cc1ccccc1)NC(=O)OC(C)(C)C)S(=O)(=O)c1ccc2[nH]c(NS(C)(=O)=O)nc2c1 [Compound 5] | 500 to 1000 | 1 to 10 |  | 
12 | O=C(N[C@@H](Cc1ccccc1)[C@H](O)CN(OC1CCCC1)S(=O)(=O)c1ccc2cn[nH]c2c1)OC1COCOC1 [Compound 60, 1,3-Dioxan-5-yl N-(1S,2R)-1-benzyl-3-[(cyclopentyloxy)(1H-indazol-6-ylsulfonyl)amino]-2-hydroxypropylcarbamate] | 100 to 500 | < 1 |  | 
13 | COc1ccc(S(=O)(=O)N(C[C@@H](O)[C@H](Cc2ccccc2)NC(=O)O[C@H]2CCOC2)OC2CCOCC2)cc1 [Compound 72, (3S)tetrahydro-3-furanyl N-(1S,2R)-1-benzyl-2-hydroxy-3-[[(4-methoxyphenyl)sulfonyl](tetrahydro-2H-pyran-4-yloxy)amino]propylcarbamate] | 500 to 1000 | 1 to 10 |  | 
14 | COc1ccc(S(=O)(=O)N(C[C@@H](O)[C@H](Cc2ccccc2)NC(=O)OC2CO[C@H]3OCC[C@@H]23)OCC(C)C)cc1 (stereo partly drawn) [Compound 145, (3R,3aS,6aR)hexahydrofuro[2,3-b]furan-3-yl N-((1S,2R)-1-benzyl-2-hydroxy-3-isobutoxy[(4-methoxyphenyl)sulfonyl]aminopropyl)carbamate] | ≤ 100 |  |  | < 1
15 | O=C(N[C@@H](Cc1ccccc1)[C@@H](CN(OC1CCCC1)S(=O)(=O)c1ccc2c(c1)OCCO2)OP(=O)(O)O)O[C@H]1CO[C@H]2OCC[C@H]21 [Compound 144, (3R,3aS,6aR)hexahydrofuro[2,3-b]furan-3-yl N-[(1S,2R)-1-benzyl-3-[(cyclopentyloxy)(2,3-dihydro-1,4-benzodioxin-6-ylsulfonyl)amino]-2-(phosphonooxy)propyl]carbamate] | ≤ 100 |  |  | < 1
16 | COc1ccc(S(=O)(=O)N(C[C@@H](O)[C@H](Cc2ccccc2)NC(=O)OC2CO[C@H]3OCC[C@@H]23)OC2CCCCC2)cc1 (stereo partly drawn) [Compound 134, (3R,3aS,6aR)hexahydrofuro[2,3-b]furan-3-yl N-((1S,2R)-1-benzyl-3-(cyclohexyloxy)[(4-methoxyphenyl)sulfonyl]amino-2-hydroxypropyl)carbamate] | ≤ 100 |  |  | < 1
17 | Nc1ccc(S(=O)(=O)N(CC(O)C(Cc2ccccc2)NC(=O)OC2COC3OCCC23)OC2CCCC2)cc1 [Example 171, (3R,3aS,6aR)hexahydrofuro[2,3-b]furan-3-yl N-(1S,2R)-3-[[(4-aminophenyl)sulfonyl](cyclopentyloxy)amino]-1-benzyl-2-hydroxypropyl carbamate] | ≤ 100 | < 1 |  | 
18 | CONC(=O)CNc1cccc(S(=O)(=O)N(CC(O)C(Cc2ccccc2)NC(=O)OC2COC3OCCC23)OC2CCCC2)c1 (mixture of isomers) [Example 168, (3R,3aS,6aR)hexahydrofuro[2,3-b]furan-3-yl N-[(1S,2R)-1-benzyl-3-((cyclopentyloxy)[3-(2-[methoxyamino]-2-oxoethylamino)phenyl]sulfonylamino)-2-hydroxypropyl]carbamate and (3S,3aR,6aS)hexahydrofuro[2,3-b]furan-3-yl N-[(1S,2R)-1-benzyl-3-((cyclopentyloxy)[3-(2-[methoxyamino]-2-oxoethylamino)phenyl]sulfonylamino)-2-hydroxypropyl]carbamate] | ≤ 100 | < 1 |  | 
19 | COc1ccc(S(=O)(=O)N(C[C@@H](O)[C@H](Cc2ccccc2)NC(=O)OC2CO[C@H]3OCC[C@@H]23)OC2CCOCC2)cc1 (stereo partly drawn) [Compound 73, (3R,3aS,6aR)hexahydrofuro[2,3-b]furan-3-yl N-(1S,2R)-1-benzyl-2-hydroxy-3-[[(4-methoxyphenyl)sulfonyl](tetrahydro-2H -pyran-4-yloxy)amino]propylcarbamate] | ≤ 100 | < 1 |  | 
20 | O=C(N[C@@H](Cc1ccccc1)[C@H](O)CN(OC1CCOCC1)S(=O)(=O)c1ccc2c(c1)OCO2)O[C@H]1CO[C@H]2OCC[C@H]21 [Compound 151, (3R,3aS,6aR)hexahydrofuro[2,3-b]furan-3-yl 3-[(1,3-benzodioxol-5-ylsulfonyl)(tetrahydro-2H-pyran-4-yloxy)amino]-1-benzyl-2-hydroxypropylcarbamate] |  | < 1 | ≤ 100 | 
21 | COc1ccc(S(=O)(=O)N(C[C@@H](O)[C@H](Cc2ccccc2)NC(=O)OC(C)(C)C)OCC2CCCCC2)cc1 [Compound 16, tert-butyl N-((1S,2R)-1-benzyl-3-(cyclohexylmethoxy)[(4-methoxyphenyl)sulfonyl]amino-2-hydroxypropyl)carbamate] | > 1000 | 10 to 100 |  | 
